Reference: patent publication US20250034520A1, “INCREASING DEVELOPMENTAL POTENTIAL OF HUMAN PREIMPLANTATION EMBRYOS BY REDUCING GENETIC INSTABILITY, ANEUPLOIDIES AND CHROMOSOMAL MOSAICISM” (THE TRUSTEES OF COLUMBIA UNIVERSITY IN THE CITY OF NEW YORK, priority 2022, published 2025)

Legend:
ATR = ATR (Homo sapiens, UniProt Q13535); conditions: cited from earlier work
human zygotes = assay: DNA damage foci immunostaining in human zygotes/parthenotes; format: cell-based
Experimental: (§1) Embryos, mouse and human, were cultured in Global Total (Life-Global) for the duration of the experiments and with added compounds as outlined below. Incubation in RNA polymerase inhibitors triptolide (1 mM) or alpha amanitin (20 mg/ml) was performed from the 2PN stage (day1) to day3 of human development. Incubation in aphidicolin was performed at 2 mM. […] Mirin was used at a concentration of 50 mM. Olaparib was used to inhibit PARP at a concentration of 10 mM. All experiments were conducted during incubation at 37° C. with 5% CO2 and 19-20% O2. Chemical stock solutions were prepared in DMSO at concentrations at least 1000× higher than the final concentration.
Artificial activation of human MII oocytes was performed using two pulses of 2.7 kV/cm at 50 ms using ECFG21 (Nepagene) in fusion buffer consisting of 0.25 M d-sorbitol buffer containing 0.1 mM calcium acetate, 0.5 mM magnesium acetate, 0.5 mM HEPES, and 1 mg ml^−1 fatty-acid-free BSA as previously described (Tachibana et al., 2013). Thereafter, oocytes were incubated for 3.5-4 h in 10 mg/ml puromycin, followed by a wash step and following culture in Global total.
(§2) Following the experimental exposures, mouse and human embryos were fixed in 2% paraformaldehyde (PFA) and 0.25% Triton X-100 in PBS for 10 minutes at room temperature, serially washed in phosphate-buffered solution (PBS) at room temperature, then stored in PBS at 4° C. until staining and imaging. Embryos were placed in 10-20 ml droplets of primary antibody solution within plastic tissue culture dishes covered with mineral oil for 1 hour at room temperature, serially washed (×2) in PBS containing 0.01% Triton X-100 to prevent embryos sticking to oil, then transferred to 10-20 ml secondary antibody solution and Hoechst (dilution 1:500) for 30 minutes. Embryos were then serially washed (×2) and placed in 5 ml droplets of PBS with 0.5% serum albumin in uncoated glass bottom dishes (Mattek) covered with embryo culture oil for imaging. The following primary antibodies were used across experiments as described above: Oct-4, γH2AX, RPA32, RPA32 S4/S8, RPA32 S33, 53BP1, RAD51, Centromere, and phospho-CHK1. […] The appropriate secondary antibodies conjugated with Alexa Fluor 488, Alexa Fluor 555, CF 568, or Alexa Fluor 647 were diluted at 1:500-1:1000. Ethynyl deoxyuridine (EdU) labeling of zygotes and embryos was performed using the labeling kit (Thermo Fisher Scientific) as described by the manufacturer. 10 mM EdU was added to culture medium for 1 h at the indicated time points, and cells were harvested and fixed thereafter. 5-ethynyl uridine (EU) labeling was performed by incubating day3 cleavage stage embryos for 4 hours in Global total containing 0.2 mM EU.
(§3) Embryos were imaged with confocal microscopy using a Zeiss LSM (LSM 710) at a magnification of 63× and the Zeiss Zen software. Images were obtained using 488-, 543- and 633-nm lasers and bright-field microscopy. The number of confocal sections was adjusted to capture the entire nucleus or the entire embryo according to the experimental design as described above. Cell numbers and staining foci numbers were counted manually. Nuclei were identified by the presence of Hoechst33342. Foci were identified if at least 3× greater intensity than nuclear average, spherical in appearance, and overlapping with Hoechst33342 staining. Inner cell masses were identified by the presence of Oct4 within a blastocyst embryo. Active DNA replication was identified by the presence of EdU. DNA damage was identified by the detection of γH2AX and RPA foci within the nucleus. Mechanisms of DNA repair were identified through the detection of RPA S4/S8, RPA S33, Rad51 and 53BP1 foci within the nucleus.

mouse 2-cell embryos = assay: single-cell sequencing chromosome content analysis, mouse 2-cell embryos; format: cell-based; conditions: mouse embryos, Wee1 kinase inhibitor added alongside aphidicolin
Experimental: as §1
Single cells from blastomeres were collected on the heated stage (Tokai Hit) of an Olympus IX71 inverted microscope equipped with Narishige micromanipulators and a zona pellucida laser (Hamilton-Thorne). Single nuclei were isolated from blastomeres by lysis and dissection of different nuclei using two […] diameter Piezo micropipettes and Holding pipette (Origio). Single embryo cells or nuclei were placed manually in single wells of a 96-well plate containing 9 ml of lysis buffer, prepared as a master mix of 798 ml H2O, 6 ml of 10 mg/mL Proteinase K solution (Sigma-Aldrich), and 96 ml 10× Single Cell Lysis and Fragmentation buffer (Sigma-Aldrich). Single cells/single nuclei were lysed by heating 96-well plates containing single cells/single nuclei at 50° C. for 1 hour, followed by incubation at 99° C. for four minutes using a PCR thermocycler. Single-cell/single-nuclei whole genome amplification (WGA) using degenerate oligo-nucleotide priming PCR (DOP-PCR) was performed using the SEQPLEX Enhanced DNA Amplification Kit (SEQXE, Sigma) according to the manufacturer's instructions. In addition, a modified version of the DOP-PCR protocol that allows inline indexing of WGA DNA was also applied. WGA DNA was subsequently processed for Illumina library sequencing preparation using standard TruSeq indexing methods via the NEBNext Ultra II DNA Library Prep Kit for Illumina (New England Biolabs). NEBNext Multiplex Oligos for Illumina (96 index primers) were used for four amplification cycles. Library DNA was quantified using Qubit dsDNA HS Assay Kit (Invitrogen, Carlsbad, CA, USA) and library size distribution was confirmed using a 2100 Bioanalyzer DNA 1000 Kit (Agilent, Santa Clara, CA, USA). A unimodal curve centered around 300-500 bp was scored as a successful library preparation. Subsequently, 30 mL of each pooled library was sent for sequencing at a concentration of 20 ng/ml. Mutiplex sequencing was performed using Illumina HiSeq 2500 single end indexed run (SR100) while targeting a coverage of approximately 1 million reads per cell/nuclei, sufficient for quantitative genome-wide copy number analysis.
Analysis of DNA sequencing data was performed as previously described (Baslan et al., 2015) with minor modifications as outlined below. Briefly, multiplex sequencing data were demultiplexed according to unique barcodes with reads assigned to their respective single-cell or single-nuclei. Unique reads were aligned to the reference human and mouse genome builds, hg19 and mm9, respectively. Each genome was partitioned into 5000 bins using a previously described algorithm (Varbin) that corrects for genome sequence mappability (Baslan et al., 2012; Navin et al., 2011). Uniquely mapped reads were sorted, indexed and subsequently counted within the partitioned genomic bins. For single-cell copy number inference, read count data were normalized genome-wide followed by CBS segmentation (Olshen et al., 2004) and transformed into integer copy number states using a least-squares fit approach (Baslan et al., 2015).

mouse 1-cell embryos = assay: timing of mitotic entry in mouse 1-cell embryos; format: cell-based; conditions: G2 phase mouse embryos, compared with untreated controls
Experimental: as §1
(§4) Mouse oocytes were activated at 1-6 hours post retrieval using 2 mM ionomycin (Sigma Aldrich) in Global Total medium for 5 minutes at 37° C. followed by culture in 10 mM puromycin and 5 mg/ml cytochalasin B for 3 hours, then cytochalasinB only for 2 hours and 10 minutes to prevent second polar body extrusion.

mouse embryos = assay: mouse preimplantation development and embryo quality; format: cell-based
Experimental: as §1, §4
as §2, with “phospho-CHK1. Phospho-specific antibodies were quality controlled through ATR dependence of foci formation in mouse zygotes, and for γH2AX also in human zygotes.” for “phospho-CHK1.”
as §3

mouse zygotes = assay: DNA damage foci immunostaining in mouse zygotes/embryos; format: cell-based; conditions: mouse zygotes, mirin combined with aphidicolin
Experimental: as §1, §4
as §2, with “phospho-CHK1. Phospho-specific antibodies were quality controlled through ATR dependence of foci formation in mouse zygotes, and for γH2AX also in human zygotes.” for “phospho-CHK1.”
as §3

human embryos [1] = assay: ethynyl uridine label incorporation in human embryos; format: cell-based; conditions: incubation from days 1 to 3
Experimental: as §1
(§5) Following the experimental exposures, mouse and human embryos were fixed in 2% paraformaldehyde (PFA) and 0.25% Triton X-100 in PBS for 10 minutes at room temperature, serially washed in phosphate-buffered solution (PBS) at room temperature, then stored in PBS at 4° C. until staining and imaging. Embryos were placed in 10-20 ml droplets of primary antibody solution within plastic tissue culture dishes covered with mineral oil for 1 hour at room temperature, serially washed (×2) in PBS containing 0.01% Triton X-100 to prevent embryos sticking to oil, then transferred to 10-20 ml secondary antibody solution and Hoechst (dilution 1:500) for 30 minutes. […]

human embryos [2] = assay: nucleation and development of human embryos; format: cell-based; conditions: 2PN zygotes incubated days 1 to 3, versus untreated cleavage-stage embryos
Text: Cryopreserved human cleavage-stage and blastocyst embryos and unfertilized oocytes were anonymously donated from individuals and couples who provided consent for use in research. Embryos were of good quality and had been cryopreserved for potential clinical use but were then no longer needed and donated for research. The cause of treatment is not disclosed. Range of maternal age of donated embryos is between 27-43. Embryos of both sexes were used, as provided by the unbiased fertilization of oocytes with sperm carrying either a Y or X chromosome. Cleavage stage embryos were thawed using the one-step thaw protocol using Global total with HEPES. Blastocyst stage embryos were thawed using the Quinn's Advantage thaw kit, then exposed to experimental conditions as outlined below. Vitrified embryos were thawed with the ECMPC warming solution set. Embryo culture was performed in Global Total. All experiments were conducted during incubation at 37° C. with 5% CO2 and 20% 02.
as §1
as §5, with “minutes. Embryos were then serially washed (×2) and placed in 5 ml droplets of PBS with 0.5% serum albumin in uncoated glass bottom dishes (Mattek) covered with embryo culture oil for imaging.” for “minutes.”
Embryos were imaged with confocal microscopy using a Zeiss LSM (LSM 710) at a magnification of 63× and the Zeiss Zen software. […] Cell numbers and staining foci numbers were counted manually. […]

Chain of ATR (Q13535 whole entry): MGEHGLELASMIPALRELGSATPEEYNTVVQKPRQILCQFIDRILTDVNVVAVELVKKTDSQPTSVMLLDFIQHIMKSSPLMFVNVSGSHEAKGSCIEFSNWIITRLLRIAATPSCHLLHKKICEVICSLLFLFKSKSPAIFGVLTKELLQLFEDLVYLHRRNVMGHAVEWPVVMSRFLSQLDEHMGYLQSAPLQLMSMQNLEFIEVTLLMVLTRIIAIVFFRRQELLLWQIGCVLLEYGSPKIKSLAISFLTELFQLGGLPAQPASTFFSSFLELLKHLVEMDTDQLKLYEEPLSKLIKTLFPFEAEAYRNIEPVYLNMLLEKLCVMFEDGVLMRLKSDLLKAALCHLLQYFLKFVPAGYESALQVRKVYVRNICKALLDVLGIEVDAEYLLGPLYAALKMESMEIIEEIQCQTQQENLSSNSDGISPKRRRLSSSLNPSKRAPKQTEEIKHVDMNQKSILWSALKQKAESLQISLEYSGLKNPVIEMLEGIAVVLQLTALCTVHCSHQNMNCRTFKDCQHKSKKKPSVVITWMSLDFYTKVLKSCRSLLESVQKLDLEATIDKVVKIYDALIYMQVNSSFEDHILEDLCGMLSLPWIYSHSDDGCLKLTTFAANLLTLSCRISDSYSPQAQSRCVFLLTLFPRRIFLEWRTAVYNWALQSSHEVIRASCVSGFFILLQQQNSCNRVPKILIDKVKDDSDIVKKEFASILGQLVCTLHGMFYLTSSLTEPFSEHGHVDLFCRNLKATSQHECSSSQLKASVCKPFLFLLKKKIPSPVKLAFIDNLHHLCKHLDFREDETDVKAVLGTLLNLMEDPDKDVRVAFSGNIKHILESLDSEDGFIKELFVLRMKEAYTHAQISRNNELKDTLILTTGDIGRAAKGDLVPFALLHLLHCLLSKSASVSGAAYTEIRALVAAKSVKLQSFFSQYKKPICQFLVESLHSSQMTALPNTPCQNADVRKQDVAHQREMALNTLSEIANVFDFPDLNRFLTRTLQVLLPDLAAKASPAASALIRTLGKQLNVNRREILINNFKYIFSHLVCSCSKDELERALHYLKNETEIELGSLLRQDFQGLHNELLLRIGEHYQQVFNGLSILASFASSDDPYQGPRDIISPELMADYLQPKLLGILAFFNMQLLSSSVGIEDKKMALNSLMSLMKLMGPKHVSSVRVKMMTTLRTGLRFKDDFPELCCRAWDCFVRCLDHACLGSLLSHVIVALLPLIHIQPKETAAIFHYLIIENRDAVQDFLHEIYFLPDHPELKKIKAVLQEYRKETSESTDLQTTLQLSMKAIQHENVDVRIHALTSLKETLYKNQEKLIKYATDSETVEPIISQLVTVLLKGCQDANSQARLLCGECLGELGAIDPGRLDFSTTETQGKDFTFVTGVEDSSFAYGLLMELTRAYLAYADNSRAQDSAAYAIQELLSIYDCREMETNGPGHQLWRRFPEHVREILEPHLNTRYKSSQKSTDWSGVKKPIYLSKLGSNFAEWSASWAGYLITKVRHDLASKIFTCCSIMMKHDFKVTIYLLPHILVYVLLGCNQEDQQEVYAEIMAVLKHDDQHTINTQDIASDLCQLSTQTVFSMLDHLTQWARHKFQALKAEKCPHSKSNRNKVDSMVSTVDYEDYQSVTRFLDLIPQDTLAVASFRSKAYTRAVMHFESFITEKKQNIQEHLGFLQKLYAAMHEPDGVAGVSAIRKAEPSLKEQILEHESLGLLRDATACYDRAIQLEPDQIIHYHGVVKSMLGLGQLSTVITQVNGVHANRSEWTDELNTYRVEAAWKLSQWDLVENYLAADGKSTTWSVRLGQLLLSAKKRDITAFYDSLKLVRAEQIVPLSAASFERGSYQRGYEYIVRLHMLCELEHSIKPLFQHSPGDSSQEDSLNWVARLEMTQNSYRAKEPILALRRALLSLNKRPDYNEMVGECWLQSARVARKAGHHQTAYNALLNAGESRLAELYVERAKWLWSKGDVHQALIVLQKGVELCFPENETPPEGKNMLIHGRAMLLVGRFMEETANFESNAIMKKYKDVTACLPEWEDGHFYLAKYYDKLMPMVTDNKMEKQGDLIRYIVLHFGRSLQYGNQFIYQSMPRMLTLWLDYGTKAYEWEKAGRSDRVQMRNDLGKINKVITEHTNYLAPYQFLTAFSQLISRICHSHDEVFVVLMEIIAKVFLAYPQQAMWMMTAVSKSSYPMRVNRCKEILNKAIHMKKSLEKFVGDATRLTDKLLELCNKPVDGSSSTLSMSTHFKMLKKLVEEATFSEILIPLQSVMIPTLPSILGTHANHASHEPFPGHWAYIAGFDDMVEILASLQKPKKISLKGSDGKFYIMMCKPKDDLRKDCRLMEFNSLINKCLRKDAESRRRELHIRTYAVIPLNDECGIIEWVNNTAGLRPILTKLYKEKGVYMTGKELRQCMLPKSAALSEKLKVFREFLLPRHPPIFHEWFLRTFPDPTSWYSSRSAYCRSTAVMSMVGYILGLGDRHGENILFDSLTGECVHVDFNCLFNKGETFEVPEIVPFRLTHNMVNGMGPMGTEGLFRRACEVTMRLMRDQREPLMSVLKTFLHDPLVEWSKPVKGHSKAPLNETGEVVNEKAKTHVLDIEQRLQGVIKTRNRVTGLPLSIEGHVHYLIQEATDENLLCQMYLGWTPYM
Chain of ATR (Q8WXE1 whole entry partner): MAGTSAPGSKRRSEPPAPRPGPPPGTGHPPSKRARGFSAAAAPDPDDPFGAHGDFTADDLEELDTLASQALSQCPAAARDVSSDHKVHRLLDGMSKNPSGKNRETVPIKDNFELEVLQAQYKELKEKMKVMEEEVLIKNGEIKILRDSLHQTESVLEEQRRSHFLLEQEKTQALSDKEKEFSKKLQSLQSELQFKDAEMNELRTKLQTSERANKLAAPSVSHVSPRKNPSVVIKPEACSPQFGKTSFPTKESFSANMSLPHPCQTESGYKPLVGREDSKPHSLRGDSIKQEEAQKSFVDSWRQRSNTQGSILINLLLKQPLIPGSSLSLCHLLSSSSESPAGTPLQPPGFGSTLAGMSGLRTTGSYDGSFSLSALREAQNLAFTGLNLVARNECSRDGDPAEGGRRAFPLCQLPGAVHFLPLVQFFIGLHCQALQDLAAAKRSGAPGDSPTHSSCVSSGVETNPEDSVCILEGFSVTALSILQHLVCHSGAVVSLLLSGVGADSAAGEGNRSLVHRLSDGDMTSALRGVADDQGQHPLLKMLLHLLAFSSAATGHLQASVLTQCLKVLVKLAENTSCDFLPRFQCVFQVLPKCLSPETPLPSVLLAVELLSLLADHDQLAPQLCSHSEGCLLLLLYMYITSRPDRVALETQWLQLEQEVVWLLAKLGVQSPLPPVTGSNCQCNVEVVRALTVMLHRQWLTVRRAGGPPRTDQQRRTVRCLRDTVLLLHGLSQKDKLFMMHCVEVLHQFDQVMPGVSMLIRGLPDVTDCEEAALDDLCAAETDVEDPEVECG

CS(=O)(=O)c1ccc(-c2cnc(N)c(C(=O)Nc3ccccc3)n2)cc1 [ATR45]
selectivity over related kinases ATM or DNA-PK (ATR): > 600 × | number of γH2AX foci (human zygotes; parthenogenetically activated oocytes, inhibitor from 14-18 h into the first cell cycle, relative to controls): reduced significantly

C=CCn1c(=O)c2cnc(Nc3ccc(N4CCN(C)CC4)cc3)nc2n1-c1cccc(C(C)(C)O)n1 [Wee1 kinase inhibitor]
genome after mitosis (mouse 2-cell embryos): highly fragmented genome | advance of mitosis (mouse 1-cell embryos): 1.5 h | developmental potential (mouse embryos; treatment in G2 phase, compared with untreated controls): impaired

N=C1NC(=O)/C(=C/c2ccc(O)cc2)S1 [mirin]
number of Rad51 foci (mouse zygotes): more than 50 | number of foci marked by γH2AX (mouse zygotes): more than 100 | number of RAD51 foci, average (human zygotes; human zygotes, combined exposure to aphidicolin and mirin): 50 sites

CC(C)[C@]12O[C@H]1[C@@H]1O[C@]13[C@]1(O[C@H]1C[C@H]1C4=C(CC[C@@]13C)C(=O)OC4)[C@@H]2O [triptolide]
embryos showing ethynyl uridine label incorporation (human embryos [1]): 0/4 | mouse embryos developed beyond the two-cell stage (mouse embryos; in the presence of the inhibitor): 0/15 | micronucleation (human embryos [2]): comparable

a-amanitin
micronucleation (human embryos [2]): comparable
